Results: patent US10060189B2, “Hexadecene synthetic drilling fluid with improved environmental properties” (priority 2014, dated 2018)

What was measured:
Leptocheirus plumulosus = experiment: 10-day sediment toxicity test (EPA Method 1644); assay type: in vivo
Source text: The term “sediment toxicity” as used herein for drilling fluids and drill cuttings refers to EPA Method 1644: “Method for Conducting a Sediment Toxicity Test with Leptocheirus plumulosus and Non-Aqueous Drilling Fluids or Synthetic-Based Drilling Muds” and sediment preparation procedures specified in EPA Method 1646. EPA Method 1644 is published in “Analytic Methods for the Oil and Gas Extraction Point Source Category.” The 10-day Leptocheirus plumulosus toxicity test characterizing the sediment toxicity according to BAT (“Best Available Technology Economically Achievable) effluent limitations and NSPS (“New Source Performance Standards”) means the concentration (milligrams/kilogram dry sediment) of the base fluid in sediment that is lethal to 50 percent of the Leptocheirus plumulosus test organisms exposed to that concentration of the base fluids after ten days of constant exposure. The test is defined in ASTM Standard No. E1367-03 (2008) which is incorporated herein by reference.

[1] = 275-day anaerobic biodegradation test (modified ISO 11734)
Source text: The term “biodegradation rate” as used herein for drilling fluids and drill cuttings is in connection with the method for performing the 275-day anaerobic biodegradation test and is defined in Federal Register, Part IV Environmental Protection Agency, 40 CFR Parts 9 and […] entitled “Effluent Limitations Guidelines and New Source Performance Standards for the Oil and Gas Extraction Point Source Category”, Fed. Reg. Vol. 66, No. 14, Jan. 22, 2001, Appendix 4 to Subpart A of Part 435, incorporated herein by reference. The 275-day anaerobic biodegradation test described in Appendix 4 to Subpart A of Part 435 is based on a modification of ISO Standard No. 11734:1995 (also incorporated herein by reference) for use in a marine environment.

[2] = Kinematic viscosity (ASTM D445-06); assay type: physicochemical
Description: The phrase “kinematic viscosity” refers to a measurement of the resistance to the flow of a fluid. Many base oils, drilling fluid compositions made from them, and the correct operation of equipment depends upon the appropriate viscosity of the fluid being used. Kinematic viscosity is determined by ASTM D445-06. The results are reported in mm^2/s or centistoke. The term “centistoke,” abbreviated “cSt,” is a unit for kinematic viscosity of a fluid (e.g., a drilling fluid), wherein 1 centistoke equals 1 millimeter squared per second (1 cSt=1 mm^2/s). It is also the ratio of the dynamic viscosity of a fluid to the fluid density. See, e.g., ASTM Standard Guide and Test Methods D 2270-04, D 445-06, D 6074, and D 2983.

Flash point = assay type: physicochemical
Pour point (ASTM D97) = assay type: physicochemical
Source text: The phrase “pour point” refers to the lowest temperature at which a fluid will pour or flow. (See, e.g., ASTM International Standard Test Method D97). The results are reported in degrees Celsius. Many commercial base oils have specifications for pour point. When base oils have low pour points, the base oils are also likely to have other good low temperature properties, such as low cloud point, and low cold flow viscosity.

Density = assay type: physicochemical

C=CCCCCCCCCCCCCCC [1-hexadecene]
Sediment Toxicity L. plumulosus 10 day LC50 Compliance Ratio (Ref Fluid/Test Fluid) (Leptocheirus plumulosus; 10 day, ratio reference fluid/test fluid, <1 passes): 0.35
EPA requirement in the 10-day sediment toxicity test (Leptocheirus plumulosus; in vivo): consistently passes
275 Day Anaerobic Biodegradation % Compliance Ratio (Ref Fluid/Test Fluid) ([1]; 275 day, ratio reference fluid/test fluid, <1 passes): 0.8
EPA requirement in the 275 day anaerobic biodegradation test ([1]; versus C1618 IO standard): consistently passes
Kinematic Viscosity at 40° C. [2]: 2.4 cSt
Flash Point (Flash point): 125 °C
Pour Point (Pour point (ASTM D97); Table 2 and text): 4 °C
Pour Point (Pour point (ASTM D97); Table 2 and text, listed as 1-hexadecene): +4 °C
Pour Point (Pour point (ASTM D97); Table 3, blends by ratio C16 unbranched isomerized olefin to 1-hexadecene): 4 deg C.
Depression in Pour Point Compared to 1-hexadecene (Pour point (ASTM D97); Table 3, compared to 1-hexadecene): 0 deg C.
Density (Density): 0.785 g/cc
